Results as given in article PMC11328599, “Crystal structure of dihydroneopterin aldolase from Mycobacterium tuberculosis associated with 8-mercaptoguanine, and development of novel S8-functionalized analogues as inhibitors: Synthesis, enzyme inhibition, in vitro toxicity and antitubercular activity” (Journal of Enzyme Inhibition and Medicinal Chemistry, 2024).
Values after ≈ are worked out from the molar mass of the structure shown. Values joined by “and” are separate entries in the source; they are usually repeats but may differ in a detail not shown here. Identical values can stand only once. Like-named read-outs stand apart in the source and are kept apart here.

Tests used:
[1] = system: M. tuberculosis H37Rv strain; assay: Minimum inhibitory concentration, resazurin reduction microplate assay (REMA); format: cell-based; details: Mycobacterium tuberculosis
[2] = target: T1, MtFolB (Mycobacterium tuberculosis, UniProt P9WNC5); assay: Mode of inhibition and inhibition constants on MtFolB aldolase activity (Lineweaver-Burk); format: biochemical; details: towards substrate DHNP; for Ki: read-out: Kis DHNP
T1 construct: made in house
T1 sequence (P9WNC5 whole entry): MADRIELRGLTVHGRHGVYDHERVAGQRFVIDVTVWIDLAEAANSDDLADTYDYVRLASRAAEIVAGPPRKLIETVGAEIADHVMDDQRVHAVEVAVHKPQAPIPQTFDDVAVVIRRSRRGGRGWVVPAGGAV
Protocol: The mode of inhibition and the inhibition constants (Ki and/or Kis) were defined for the compounds 3a-e. There are three categories for the inhibition mode: competitive, where inhibitor and substrate binding are mutually exclusive; non-competitive, if the inhibitor can bind to both the free enzyme and the enzyme-substrate complex; or uncompetitive, when the inhibitor binds only to the enzyme-substrate complex. For each compound, 3 curves were performed with fixed-varied inhibitor concentration and varying the DHNP concentration until saturation of enzyme activity. For the compound 3a the fixed-varied concentrations were 0.2 μM, 0.5 μM and 0.8 μM (varying DHNP 0.5 – 10 μM). For the compound 3b the fixed-varied concentrations were 0.1 µM (varying DHNP 0.2 – 10 µM); 0.3 μM (varying DHNP 0.5 – 10 μM) and 0.6 μM (varying DHNP 0.5 – 15 μM). For the compound 3c the fixed-varied concentrations were 0.3 μM, 0.6 μM and 0.9 μM (varying DHNP 0.5 – 10 μM). For the compound 3d the fixed-varied concentrations were 0.5 μM, 1 μM (varying DHNP 0.5 – 10 μM) and 2.5 μM (varying DHNP 1 – 10 μM). For the compound 3e the fixed-varied concentrations were 1.4 µM, 3.5 µM (varying DHNP 0.5 – 10 µM) and 7 µM (varying DHNP 1 – 10 µM). Furthermore, we performed a control experiment with 10% DMSO in the absence of inhibitors varying the DHNP concentration until saturation (0.2 – 10 µM). The straight-line patterns obtained were used to define the mode of inhibition. The diagnostic signature of a competitive inhibitor is a set of lines that intersect on the y-axis, for non-competitive inhibitors the pattern of intersection is to the left of the y-axis and for uncompetitive inhibitors the lines are parallel to each other. The inhibition constants were calculated using Equation (2) for competitive inhibitors or Equation (3) for non-competitive inhibitors, where [I] is the inhibitor concentration, [S] is the substrate concentration, KM is the Michaelis-Menten constant, Vmax is the maximum velocity, Kis is the inhibition constant for the enzyme-substrate complex, and Kii is the inhibition constant for the enzyme-substrate-inhibitor complex. (2) 1/v0=KM/Vmax(1+[I]/Kis)1/[S]+1/Vmax (3) 1/v0=KM/Vmax(1+[I]/Kis)1/[S]+1/Vmax(1+[I]/Kii)

[3] = in vitro; format: cell-based; details: % of cell viability ± SEM
Protocol: (§1) Cell viability assays in the presence of compound 3e were performed in both Vero (BCRJ code 0245) and HepG2 (BCRJ code 0291) cells using MTT (3-[4,5-dimethylthiazol-2-yl]-2,5 diphenyl tetrazolium bromide)[21] and neutral red uptake (NRU)[22] methods. Both cell lines were grown in Dulbecco’s Modified Eagle Medium (DMEM-Gibco, Grand Island, NY, USA) supplemented with 10% or 20% inactivated foetal bovine serum (FBS- Invitrogen) for Vero and HepG2, respectively, 1% penicillin (Gibco) and streptomycin (Gibco), and 0.1% fungizone (Gibco). The experiments were performed in 96-well plates. First, cells were seeded at 6 x 10^3 (Vero) or 7 x 10^3/well (HepG2) and incubated overnight at 37 °C under a 5% CO2 atmosphere. Then, the medium was removed and replaced with fresh medium containing the compound at a final concentration of 75 µM, 87.5 µM, or 100 µM with DMSO at a final concentration of 0.8%. Cells were incubated during 72 h at 37 °C under a 5% CO2 atmosphere. For the MTT assay, the medium was removed after the incubation and replaced with MTT reagent (Sigma-Aldrich) at 5 mg/mL, and then the cells were incubated for 4 h. DMSO was used to solubilise formazan crystals. The absorbance was measured at 570 nm using microplate reader (EZ Read 400 microplate reader, Biochrom, Cambridge, UK). Precipitated purple formazan crystals were directly proportional to the number of live cells with mitochondrial metabolism. For the NRU assay, after the incubation with the compound, the media was removed and 200 µL of neutral red dye solution (Sigma-Aldrich) at 25 µg/mL prepared in serum-free medium was added to each well. The plate was then incubated for 3 h at 37 °C under 5% CO2. After this time, cells were washed twice with PBS, followed by incubation with 100 μL of a desorb solution (ethanol/acetic acid/water, […]) for 30 min, with gentle shaking to extract neutral red dye from the viable cells. The absorbance was measured at 562 nm using microplate reader (EZ Read 400 microplate reader, Biochrom, Cambridge, UK). Treated control wells (0.8% DMSO) were used as references for maximum cell viability (100%). Three independent experiments were performed, and the data were expressed as the means of cell viability ± the standard error of the means. Statistical analysis was performed using one-way ANOVA analysis of variance followed by Dunett’s Multiple Comparison Test post-test using GraphPad Prism 9.0.0 (San Diego, CA, USA).

[4] = system: HepG2 cells; assay: in vitro; format: cell-based; details: for % of cell viability ± SEM: human, 72 h
Protocol: as §1

[5] = system: Vero cells; assay: in vitro; format: cell-based; details: for % of cell viability ± SEM: African green monkey, 72 h
Protocol: as §1

[6] = physchem; format: physicochemical; details: 25 °C, thermodynamic from solid
Protocol: The solubility of the compound 3e was evaluated under three pH conditions: pH 1.2 (HCl 0.1 M); pH 7.4 (PBS 1X); and pH 9.1 (NH4HCO3 0.1 M). For this assay, we prepared a suspension of compound 3e at 1 mg/mL in each buffer solution by vortexing it for 1 min. Then, the suspension was kept under constant shaking for 4 h at 25 °C. Subsequently, the suspension was centrifuged at 13,000 rpm for 15 min at 25 °C. The supernatant was quantified by ultra-high-performance liquid chromatography (UHPLC) using single-point calibration of a known concentration of the compound in DMSO. The experiment was performed in triplicate.

[7] = REMA, 7 days + 48 h resazurin, read-out: MIC
[8] = converted from µg/mL, read-out: MIC (equivalent)

SMILES | melting point | Inhibition mode [2] | Ki [2] [nM] | further results
NNC(=O)c1ccncc1 [INH, Isoniazid] | – | – | – | MIC [1, 7]: 0.31 µg/mL; MIC [1, 8]: 2.3 µM
CC1CCC(NC(=O)CSc2nc3c(=O)[nH]c(N)nc3[nH]2)CC1 (centres unmarked) [Compound 3g, 2-((2-amino-6-oxo-6,9-dihydro-1H-purin-8-yl)thio)-N-(4-methylcyclohexyl)acetamide] | 282 to 284 °C (dec.) | – | – | –
C[C@@H](NC(=O)CSc1nc2c(=O)[nH]c(N)nc2[nH]1)C1CCCCC1 [Compound 3n, (R)-2-((2-amino-6-oxo-6,9-dihydro-1H-purin-8-yl)thio)-N-(1-cyclohexylethyl)acetamide] | 289 to 291 °C (dec.) | – | – | –
Nc1nc2[nH]c(SCC(=O)Nc3ccc(N4CCOCC4)cc3)nc2c(=O)[nH]1 [Compound 3b, 2-((2-amino-6-oxo-6,9-dihydro-1H-purin-8-yl)thio)-N-(4-morpholinophenyl)acetamide] | 326 to 328 °C (dec.) | Competitive | 300 ± 80 | –
Nc1nc2[nH]c(SCC(=O)Nc3cccc4c3CCCC4)nc2c(=O)[nH]1 [Compound 3e, 2-((2-amino-6-oxo-6,9-dihydro-1H-purin-8-yl)thio)-N-(5,6,7,8-tetrahydronaphthalen-1-yl)acetamide] | 260 to 261 °C (dec.) | Non-competitive | 1400 ± 300 | Kii DHNP [2]: 6.3 µM and 6.3 ± 1.2 µM; MIC [1, 7]: 40 µg/mL; MIC [1, 8]: 108 µM; viability at 72 h, 75 µM ([3]; African green monkey): 115 ± 2%; viability at 72 h, 87.5 µM ([3]; African green monkey): 94 ± 10%; viability at 72 h, 100 µM ([3]; African green monkey): 94 ± 3%; viability at 72 h, 75 µM ([3]; human): 108 ± 3%; viability at 72 h, 87.5 µM ([3]; human): 97 ± 2%; viability at 72 h, 100 µM ([3]; human): 96 ± 2%; toxicity [4]: no apparent toxicity; % of cell viability ± SEM ([4]; 75 µM): 100 ± 6%; % of cell viability ± SEM ([4]; 87.5 µM): 111 ± 3%; % of cell viability ± SEM ([4]; 100 µM): 104 ± 2%; toxicity [5]: no apparent toxicity; % of cell viability ± SEM ([5]; 75 µM): 96 ± 1%; % of cell viability ± SEM ([5]; 87.5 µM): 102 ± 3%; % of cell viability ± SEM ([5]; 100 µM): 96 ± 2%; solubility at 4 h ([6]; pH 1.2, simulated gastric fluid): 612 µM (≈ 227 µg/mL); solubility at 4 h ([6]; pH 7.4, aqueous buffer): 1.1 µM (≈ 0.407 µg/mL); solubility at 4 h ([6]; pH 9.1, aqueous buffer): 37.6 µM (≈ 13.9 µg/mL)
Nc1nc2[nH]c(SCC(=O)Nc3ccc4c(c3)CCCC4)nc2c(=O)[nH]1 [Compound 3d, 2-((2-amino-6-oxo-6,9-dihydro-1H-purin-8-yl)thio)-N-(5,6,7,8-tetrahydronaphthalen-2-yl)acetamide] | 294 to 295 °C (dec.) | Competitive | 200 ± 50 | –
C[C@@H]1[C@H](NC(=O)CSc2nc3c(=O)[nH]c(N)nc3[nH]2)C[C@H]2C[C@@H]1C2(C)C [Compound 3k, 2-((2-amino-6-oxo-6,9-dihydro-1H-purin-8-yl)thio)-N-((1S,2S,3R,5R)-2,6,6-trimethylbicyclo [3.1.1]heptan-3-yl)acetamide] | 289 to 291 °C (dec.) | – | – | –
C[C@H](NC(=O)CSc1nc2c(=O)[nH]c(N)nc2[nH]1)C1CCCCC1 [Compound 3m, (S)-2-((2-amino-6-oxo-6,9-dihydro-1H-purin-8-yl)thio)-N-(1-cyclohexylethyl)acetamide] | 294 to 296 °C (dec.) | – | – | –
Nc1nc2[nH]c(SCC(=O)NC3CCC3)nc2c(=O)[nH]1 [Compound 3i, 2-((2-amino-6-oxo-6,9-dihydro-1H-purin-8-yl)thio)-N-cyclobutylacetamide] | 285 to 287 °C (dec.) | – | – | –
Nc1nc2[nH]c(SCC(=O)NC3CCCCCC3)nc2c(=O)[nH]1 [Compound 3f, 2-((2-amino-6-oxo-6,9-dihydro-1H-purin-8-yl)thio)-N-cycloheptylacetamide] | 292 to 294 °C (dec.) | – | – | –
CN(C(=O)CSc1nc2c(=O)[nH]c(N)nc2[nH]1)C1CCCCC1 [Compound 3j, 2-((2-amino-6-oxo-6,9-dihydro-1H-purin-8-yl)thio)-N-cyclohexyl-N-methylacetamide] | 272 to 274 °C (dec.) | – | – | –
Nc1nc2[nH]c(SCC(=O)NC3CCCC3)nc2c(=O)[nH]1 [Compound 3h, 2-((2-amino-6-oxo-6,9-dihydro-1H-purin-8-yl)thio)-N-cyclopentylacetamide] | 280 to 282 °C (dec.) | – | – | –
Nc1nc2[nH]c(SCC(=O)Nc3ccc(N4CCCCC4)cc3)nc2c(=O)[nH]1 [Compound 3a, 2-((2-amino-6-oxo-6,9-dihydro-1H-purin-8-yl)thio)-N-(4-(piperidin-1-yl)phenyl)acetamide] | 258 to 260 °C (dec.) | Competitive | 400 ± 100 | –
Nc1nc2[nH]c(SCC(=O)NCC3CCCCC3)nc2c(=O)[nH]1 [Compound 3l, 2-((2-amino-6-oxo-6,9-dihydro-1H-purin-8-yl)thio)-N-(cyclohexylmethyl)acetamide] | 262 to 263 °C (dec.) | – | – | –
Nc1nc2[nH]c(SCC(=O)Nc3ccc(C(=O)N4CCCC4)cc3)nc2c(=O)[nH]1 [Compound 3c, 2-((2-amino-6-oxo-6,9-dihydro-1H-purin-8-yl)thio)-N-(4-(pyrrolidine-1-carbonyl)phenyl)acetamide] | 237 to 239 °C (dec.) | Non-competitive | 300 ± 200 | Kii DHNP [2]: 1.5 µM and 1.5 ± 0.9 µM
